Measured values published in patent US10780101B2, “Amide derivatives of squalamine for the treatment of infections” (VIRBAC, priority 2016, dated 2020).
Converted amounts (≈) assume the structure as drawn. Like-named read-outs stand apart in the source and are kept apart here.

Experiments:
[1] = test system: S. aureus Human ATCC 25923; test: MIC determination, S. aureus human ATCC 25923; assay type: cell-based; settings: Staphylococcus aureus, ATCC25923; Gram-positive; Mueller-Hinton medium, 24 h at 37° C.
Procedure, shortened: (§1)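 MH broth, inoculum OD 0.01/well, 0.5 cascade dilution of test compound (stock 5 mg/mL, DMSO/MeOH 50:50). 37 °C, 24 h, humid. OD620 read → MIC. n=2.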

E. coli Animal (1956) = test: MIC determination, E. coli animal (1956); assay type: cell-based; settings: Escherichia coli; Gram-negative; Mueller-Hinton medium, 24 h at 37° C.
Procedure, shortened: as §1

S. aureus Animal (340) = test: MIC determination, S. aureus animal (340); assay type: cell-based; settings: Staphylococcus aureus; Gram-positive; Mueller-Hinton medium, 24 h at 37° C.
Procedure, shortened: as §1

[2] = test system: E. faecalis Human ATCC 29212; test: MIC determination, E. faecalis human ATCC 29212; assay type: cell-based; settings: Enterococcus faecalis, ATCC29212; Gram-positive; Mueller-Hinton medium, 24 h at 37° C.
Procedure, shortened: as §1

E. coli Human ATCC 28922 = test: MIC determination, E. coli human ATCC 28922; assay type: cell-based; settings: Escherichia coli, ATCC28922; Gram-negative; Mueller-Hinton medium, 24 h at 37° C.
Procedure, shortened: as §1

C. albicans = test: Antifungal activity, cascade microdilution; assay type: cell-based; settings: Candida albicans, 24 h, read-out: IC50 (μg/mL) C. albicans
[3] = test system: P. aeruginosa Human ATCC 27853; test: MIC determination, P. aeruginosa human ATCC 27853; assay type: cell-based; settings: Pseudomonas aeruginosa, ATCC27853; Gram-negative; Mueller-Hinton medium, 24 h at 37° C.
Procedure, shortened: as §1

[4] = test system: P. aeruginosa Animal (1051575); test: MIC determination, P. aeruginosa animal (1051575); assay type: cell-based; settings: Pseudomonas aeruginosa; Gram-negative; Mueller-Hinton medium, 24 h at 37° C.
Procedure, shortened: as §1

[5] = test system: S. intermedius Animal (1051997); test: MIC determination, S. intermedius animal (1051997); assay type: cell-based; settings: Staphylococcus intermedius; Gram-positive; Mueller-Hinton medium, 24 h at 37° C.
Procedure, shortened: as §1

P. aeruginosa (1051575) [6] = test: Potentiation of doxycycline activity (combination MIC); assay type: cell-based, Pseudomonas aeruginosa; settings: in presence of doxycycline 2 μg/mL; 24 hours at 37° C.
CHO-K1 cells = test: WST1 cytotoxicity test on CHO-K1 cells; assay type: cell-based, Chinese hamster; settings: Cricetulus griseus
Procedure, shortened: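 CHO-K1 cells pre-grown 24 h, then exposed to increasing compound concentrations in duplicate for 24 h at 37° C, 5% CO2. Viability read after 20 min with 10% WST-1 in PBS at 450 nm; IC50 from nonlinear regression as concentration cutting viability 50%.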

P. aeruginosa (1051575) [7] = test: Potentiation of erythromycin activity (combination MIC); assay type: cell-based, Pseudomonas aeruginosa; settings: erythromycin 2 μg/mL; concentration of compound required to restore antibiotic activity
Procedure: (§2) This method requires the use of a 96-well plate: 100 μL of a liquid culture medium are placed in each well and then seeded with the microbial suspension prepared previously. The required volume to be seeded is calculated for an OD of 0.01, which corresponds to about 5×10^6 bacteria in each well. In this plate, the first line corresponds to a negative control (200 μL of sterile culture medium in each well), the second line corresponds to a positive control (100 μL of sterile culture medium+100 μL of the bacterial suspension), and the third line contains 192 μL of culture medium; 8 μL of compound of formula (I) to be tested are placed in each well. Thereafter, a cascade dilution is performed from this line. L of a doxycycline solution (1 mg dissolved in 20 mL) are then added to each well of lines 3 to 8 to obtain a final antibiotic concentration of 2 μg/mL. 92 μL of bacterial suspension are then added to lines 3 to 8. The results are read (the determination of the MIC (2 μg/mL of doxycycline) in the presence of X g/mL of compound of formula (I)) after 24 hours of incubation at 37° C. under a humid atmosphere. After 24 hours of incubation at 37° C., 40 μL of nitro tetrazolium iodide are added to each well to reveal the presence of live bacteria by staining the medium pink.
The procedure is identical to that indicated in Example 5 above. 8 μL of an antibiotic solution under consideration (1 mg dissolved in 20 mL) are added to obtain a final antibiotic concentration of 2 μg/mL instead of 8 μL of a doxycycline solution.
(§3) The results are given in table V. They indicate the concentration of compound of formula (I) required to be able to restore the activity of the antibiotic under consideration.

P. aeruginosa (1051575) [8] = test: Potentiation of chloramphenicol activity (combination MIC); assay type: cell-based, Pseudomonas aeruginosa; settings: chloramphenicol 2 μg/mL; concentration of compound required to restore antibiotic activity
Procedure: as §2, with “L of a doxycycline solution (1 mg dissolved in 20 mL) are then added to each well of lines 3 to 8 to obtain a final antibiotic concentration of 2 μg/mL.” left out
The procedure is identical to that indicated in Example 5 above. […]
as §3

[9] = CHO-K1, 24 h, read-out: IC50 (μg/mL) CHO
[10] = CHO-K1, read-out: IC50 (μg/mL) CHO

| Compound | MIC [1] [µg/mL] | MIC (E. coli Animal (1956)) [µg/mL] | MIC (S. aureus Animal (340)) [µg/mL] | MIC [2] [µg/mL] | MIC (E. coli Human ATCC 28922) [µg/mL] | IC50 (C. albicans) [µg/mL] | MIC [3] [µg/mL] | MIC [4] [µg/mL] | MIC [5] [µg/mL] | MIC - P. aeruginosa (1051575): content of compound of formula (I) to restore the doxycycline activity (at 2 μg/mL) (P. aeruginosa (1051575) [6]) [µg/mL] | IC50 (CHO-K1 cells; [9]) [µg/mL] | IC50 (CHO-K1 cells; [10]) [µg/mL] | MIC P. aeruginosa (1051575) compound + erythromycin (P. aeruginosa (1051575) [7]) [µg/mL] | MIC P. aeruginosa (1051575) compound + chloramphenicol (P. aeruginosa (1051575) [8]) [µg/mL] |
| --- | --- | --- | --- | --- | --- | --- | --- | --- | --- | --- | --- | --- | --- | --- |
| CC(C)NC(=O)CC[C@@H](C)[C@H]1CCC2C3C(CC[C@@]21C)[C@@]1(C)CC[C@H](NCCCNCCCCN)CC1C[C@H]3O (stereo partly drawn) [(52), 3β-spermidino-N-isopropylchenodeoxycholamide] | 7 (≈ 12.5 µM) | 28 (≈ 49.9 µM) | 4 (≈ 7.13 µM) | 14 (≈ 25 µM) | 112 (≈ 200 µM) | 4 (≈ 7.13 µM) | 56 (≈ 99.8 µM) | 112 (≈ 200 µM) | 2 (≈ 3.57 µM) | 3.5 | 80 (≈ 143 µM) | 48 (≈ 85.6 µM) | – | – |
| CC(C)NC(=O)CC[C@@H](C)[C@H]1CCC2C3C(CC[C@@]21C)[C@@]1(C)CC[C@H](NCCCN(CCCN)CCCN)CC1C[C@H]3O (stereo partly drawn) [(46), 3β-(tris(3-aminopropyl)amine)-N-isopropylchenodeoxycholamide] | 8 (≈ 13.2 µM) | 30 (≈ 49.7 µM) | 2 (≈ 3.31 µM) | 30 (≈ 49.7 µM) | > 120 | 1 (≈ 1.66 µM) | 60 (≈ 99.3 µM) | 120 (≈ 199 µM) | 2 (≈ 3.31 µM) | 2 | 50 (≈ 82.8 µM) | 50 (≈ 82.8 µM) | – | – |
| C[C@H](CCC(=O)NC1CCCCC1)[C@H]1CCC2C3C(CC[C@@]21C)[C@@]1(C)CC[C@H](NCCCN(CCCN)CCCN)CC1C[C@H]3O (stereo partly drawn) [(47), 3β-(tris(3-aminopropyl)amine)-N-cyclohexylchenodeoxycholamide] | 4 (≈ 6.21 µM) | 32 (≈ 49.7 µM) | 8 (≈ 12.4 µM) | 8 (≈ 12.4 µM) | 130 (≈ 202 µM) | 2 (≈ 3.11 µM) | 130 (≈ 202 µM) | 32 (≈ 49.7 µM) | 8 (≈ 12.4 µM) | 2 | – | – | – | – |
| CNC(=O)CC[C@@H](C)[C@H]1CCC2C3C(CC[C@@]21C)[C@@]1(C)CC[C@H](NCCCNCCCN)CC1C[C@H]3O (stereo partly drawn) [(11), 3β-norspermidino-N-methylchenodeoxycholamide] | 6 (≈ 11.6 µM) | 13 (≈ 25.1 µM) | 3 (≈ 5.78 µM) | 13 (≈ 25.1 µM) | 13 (≈ 25.1 µM) | 3 (≈ 5.78 µM) | 12 (≈ 23.1 µM) | 6 (≈ 11.6 µM) | 1 (≈ 1.93 µM) | 2 | 20 (≈ 38.5 µM) | 20 (≈ 38.5 µM) | – | – |
| CC(C)N(C(=O)CC[C@@H](C)[C@H]1CCC2C3C(CC[C@@]21C)[C@@]1(C)CC[C@H](NCCCNCCCNCCCN)CC1C[C@H]3O)C(C)C (stereo partly drawn) [(40), 3β-norspermino-N,N-diisopropylchenodeoxycholamide] | 4 (≈ 6.19 µM) | 8 (≈ 12.4 µM) | 2 (≈ 3.1 µM) | 2 (≈ 3.1 µM) | 32 (≈ 49.5 µM) | 1 (≈ 1.55 µM) | 8 (≈ 12.4 µM) | 8 (≈ 12.4 µM) | 2 (≈ 3.1 µM) | 2 | – | – | – | – |
| CC(C)NC(=O)CC[C@@H](C)[C@H]1CCC2C3CCC4C[C@@H](NCCCN5CCN(CCCN)CC5)CC[C@]4(C)C3CC[C@@]21C (stereo partly drawn) [(19), 3β-(1,4-bis(3-aminopropyl)piperazine)-N-isopropyllithocholamide] | 8 (≈ 13.3 µM) | 30 (≈ 50 µM) | 4 (≈ 6.67 µM) | 15 (≈ 25 µM) | 30 (≈ 50 µM) | 4 (≈ 6.67 µM) | 120 (≈ 200 µM) | 30 (≈ 50 µM) | 4 (≈ 6.67 µM) | 8 | 12 (≈ 20 µM) | 12 (≈ 20 µM) | – | – |
| CCN(CC)C(=O)CC[C@@H](C)[C@H]1CCC2C3C(CC[C@@]21C)[C@@]1(C)CC[C@H](NCCCNCCCCNCCCN)CC1C[C@H]3O (stereo partly drawn) [Compound (34), 3β-spermino-N,N-diethylchenodeoxycholamide] | 4 (≈ 6.33 µM) | 8 (≈ 12.7 µM) | 4 (≈ 6.33 µM) | 2 (≈ 3.16 µM) | 8 (≈ 12.7 µM) | 0.5 (≈ 0.791 µM) | 16 (≈ 25.3 µM) | 16 (≈ 25.3 µM) | 2 (≈ 3.16 µM) | 2 | 50 (≈ 79.1 µM) | 50 (≈ 79.1 µM) | – | – |
| CC(C)N(C(=O)CC[C@@H](C)[C@H]1CCC2C3C(CC[C@@]21C)[C@@]1(C)CC[C@H](NCCCN(CCCN)CCCN)CC1C[C@H]3O)C(C)C (stereo partly drawn) [(56), 3β-(tris(3-aminopropyl)amine)-N,N-diisopropylchenodeoxycholamide] | 4 (≈ 6.19 µM) | 16 (≈ 24.8 µM) | 4 (≈ 6.19 µM) | 2 (≈ 3.1 µM) | 65 (≈ 101 µM) | 4 (≈ 6.19 µM) | 130 (≈ 201 µM) | 65 (≈ 101 µM) | 4 (≈ 6.19 µM) | 2 | – | – | – | – |
| CC(C)N(C(=O)CC[C@@H](C)[C@H]1CCC2C3C(CC[C@@]21C)[C@@]1(C)CC[C@H](NCCCNCCCN)CC1C[C@H]3O)C(C)C (stereo partly drawn) [(37), 3β-norspermidino-N-diisopropylchenodeoxycholamide] | 4 (≈ 6.79 µM) | 4 (≈ 6.79 µM) | 2 (≈ 3.4 µM) | 4 (≈ 6.79 µM) | 15 (≈ 25.5 µM) | – | 30 (≈ 50.9 µM) | 15 (≈ 25.5 µM) | 1 (≈ 1.7 µM) | 2 | 35 (≈ 59.4 µM) | – | 7 | 2 |
| CC(C)NC(=O)CC[C@@H](C)[C@H]1CCC2C3CCC4C[C@@H](NCCCN(CCCN)CCCN)CC[C@]4(C)C3CC[C@@]21C (stereo partly drawn) [(49), 3β-(tris(3-aminopropyl)amine)-N-isopropyllithocholamide] | 4 (≈ 6.8 µM) | 30 (≈ 51 µM) | 4 (≈ 6.8 µM) | 15 (≈ 25.5 µM) | 120 (≈ 204 µM) | – | 120 (≈ 204 µM) | 60 (≈ 102 µM) | 2 (≈ 3.4 µM) | 4 | 6 (≈ 10.2 µM) | – | 30 | 4 |
